Assay [1] concerns Periplaneta americana. The assay is described as follows: Insecticidal activity against Periplaneta americana (American cockroach) compound administered through injection into abdomen in presence of piperonyl butoxide and NIA 16388. In kind it is functional.
Assay [2] has as its target T1, Nicotinic acetylcholine receptor alpha 5 subunit (Musca domestica) (UniProt A9XFY4).
T1 sequence (whole entry): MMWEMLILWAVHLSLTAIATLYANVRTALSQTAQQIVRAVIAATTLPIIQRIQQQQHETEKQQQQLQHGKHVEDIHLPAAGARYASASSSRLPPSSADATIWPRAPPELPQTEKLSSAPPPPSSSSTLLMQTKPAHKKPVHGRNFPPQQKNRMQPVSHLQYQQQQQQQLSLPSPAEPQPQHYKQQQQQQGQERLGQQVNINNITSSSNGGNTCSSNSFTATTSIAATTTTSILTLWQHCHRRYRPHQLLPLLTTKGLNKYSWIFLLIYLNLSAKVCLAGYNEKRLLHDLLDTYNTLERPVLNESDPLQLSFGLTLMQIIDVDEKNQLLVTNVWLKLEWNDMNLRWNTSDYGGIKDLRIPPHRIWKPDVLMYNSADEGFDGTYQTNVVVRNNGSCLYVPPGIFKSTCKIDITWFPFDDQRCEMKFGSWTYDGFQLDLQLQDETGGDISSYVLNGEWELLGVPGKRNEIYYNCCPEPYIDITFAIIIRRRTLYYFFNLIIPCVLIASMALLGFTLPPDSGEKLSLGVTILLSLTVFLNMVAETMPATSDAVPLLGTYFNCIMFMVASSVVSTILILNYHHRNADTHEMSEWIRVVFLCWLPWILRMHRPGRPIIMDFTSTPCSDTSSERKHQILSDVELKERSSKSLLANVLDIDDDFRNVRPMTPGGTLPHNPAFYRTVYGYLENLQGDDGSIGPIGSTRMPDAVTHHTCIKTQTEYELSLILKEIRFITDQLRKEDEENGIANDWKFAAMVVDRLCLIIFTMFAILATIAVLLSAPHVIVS
In words: Displacement of [3H]IMI from Musca domestica (house fly) head membrane nicotinic acetylcholine receptor.

For assay [3], the system named is Periplaneta americana. In words: Insecticidal activity against Periplaneta americana (American cockroach) compound administered through injection into abdomen. The assay is classed as functional.
Assay [4] deals with Aulacophora. In words: Insecticidal activity against second-instar larvae of Aulacophora femoralis (cucurbit leaf beetle) in compound-treated cucumber leaf assessed as mortality at 8 ppm after 2 to 7 days. In kind it is functional.
Assay [5] concerns Musca domestica. The assay is described as follows: Insecticidal activity against Musca domestica (house fly) compound administered through injection. The assay is classed as functional.
Assay [6] has as its system Periplaneta americana. The assay is described as follows: Neuroblocking potency in Periplaneta americana (American cockroach) admoninal central nerve cod. In kind it is functional.
In assay [7] the test system is Myzus persicae. In words: Insecticidal activity against Myzus persicae (green peach aphid) in two-leaf stage eggplant assessed as mortality at 1.6 ppm after 7 days. Conditions: 168 h. The assay is classed as functional.
Assay [8] concerns Musca domestica. In words: Insecticidal activity against Musca domestica (house fly) compound administered through injection in presence of piperonyl butoxide and NIA 16388. The assay is classed as functional.
Assay [9] concerns Nephotettix cincticeps. In words: Insecticidal activity against Nephotettix cincticeps (green rice leafhopper) in compound-sprayed rice plant assessed as mortality at 1.6 ppm after 2 to 7 days. The assay is classed as functional.
For assay [10], the system named is Nephotettix cincticeps. The assay is described as follows: Insecticidal activity against Nephotettix cincticeps (green rice leafhopper) in compound-sprayed rice plant assessed as mortality at 8 ppm after 2 to 7 days. The assay is classed as functional.
Assay [11] relates to Myzus persicae. The assay is described as follows: Insecticidal activity against Myzus persicae (green peach aphid) in two-leaf stage eggplant assessed as mortality at 8 ppm after 7 days. The assay is classed as functional. The settings on record: 168 h.
The test system of assay [12] is Aulacophora. In words: Insecticidal activity against second-instar larvae of Aulacophora femoralis (cucurbit leaf beetle) in compound-treated cucumber leaf assessed as mortality at 1.6 ppm after 2 to 7 days. The assay is classed as functional.

By mortality is commonly meant the share of the test organisms that died.

For the molecule `CN1CCC[C@H]1c1cccnc1` [NICOTINE], the MLD turned out to be 310 nmol in the assay on Periplaneta americana [1] and 490 nmol in the assay with Periplaneta americana [3]. In assay [2], this molecule registered an Activity of 11.9 µM.

Turning to `O=[N+]([O-])/N=C1\NCCN1Cc1ccc(Cl)nc1` [IMIDACLOPRID], the mortality at 8 ppm in the assay with Aulacophora [4], in the assay with Nephotettix cincticeps [10] and with Myzus persicae [11] was 100% each time. Also, the MLD in the assay on Musca domestica [5] was found to be 2.2 pmol; with Periplaneta americana [1], 0.07 nmol; in the assay with Musca domestica [8] it was 0.26 pmol; in the assay on Periplaneta americana [3], 1.1 nmol. Besides, the Activity was 2.3 µM in the assay with Periplaneta americana [6] and 0.02 µM in assay [2]. For the same molecule, the mortality at 1.6 ppm in the assay with Myzus persicae [7], in the assay on Nephotettix cincticeps [9] and in the assay on Aulacophora [12] was 100% each time.

Turning to `CN1CCC[C@@H]1c1cccnc1` [R-NICOTINE], the MLD with Periplaneta americana [1] is listed as 160 nmol; with Periplaneta americana [3], 320 nmol. This molecule showed an Activity in assay [2] of 422 µM.

In the case of `C[C@H](c1ccc(Cl)nc1)N1CCN/C1=N\[N+](=O)[O-]` [(R)-METHYL-IMIDACLOPRID], the values for the mortality at 8 ppm with Aulacophora [4], in the assay with Nephotettix cincticeps [10] and with Myzus persicae [11] were 90%, 100% and 90%, respectively. Also, the MLD worked out at 55 pmol in the assay on Musca domestica [5], 0.83 nmol in the assay with Periplaneta americana [1], 2.3 pmol with Musca domestica [8] and 42 nmol with Periplaneta americana [3]. Moreover, the Activity with Periplaneta americana [6] was 73 µM; in assay [2] it was 0.95 µM. Moreover, the results for the mortality at 1.6 ppm in the assay with Myzus persicae [7], in the assay on Nephotettix cincticeps [9] and in the assay on Aulacophora [12] were 60%, 100% and 50%, respectively.

With `C[C@@H](c1ccc(Cl)nc1)N1CCN/C1=N\[N+](=O)[O-]` [(S)-METHYL-IMIDACLOPRID], the mortality at 8 ppm was 100% with Aulacophora [4], 100% in the assay with Nephotettix cincticeps [10] and 60% in the assay on Myzus persicae [11]. For the same molecule, the MLD with Musca domestica [5] is listed as 45 pmol; in the assay on Periplaneta americana [1], 0.93 nmol; in the assay on Musca domestica [8] it was 1.1 pmol; with Periplaneta americana [3], 30 nmol. Moreover, the values for the Activity (in the assay on Periplaneta americana [6]; in [2]) were 5.9 µM and 0.19 µM, respectively. Besides, the mortality at 1.6 ppm in the assay with Myzus persicae [7] came out at 40%; in the assay with Nephotettix cincticeps [9] it was 90%; with Aulacophora [12], 100%.

The values above are taken from ChEMBL document CHEMBL3046160, “Insecticidal Activities of the Enantiomers of Asymmetric 1-[1-(6-Chloro-3-pyridyl)ethyl]-2-nitroiminoimidazolidine against American Cockroach, Cucurbit Leaf Beetle, Green Rice Leafhopper and Green Peach Aphid Following Injection, Dipping and Spraying” (2004).
